The record followed here is patent US6784201B2, “Benzothiepines having activity as inhibitors of ileal bile acid transport and taurocholate uptake” (G.D. Searle & Company, priority 1994, dated 2004).

The target of the test is T1, human IBAT (Homo sapiens, UniProt Q12908).
T1 construct: expressed in transfected cells; host or cells: Baby hamster kidney (BHK) cells, clone H14
T1 sequence (Q12908 1-348): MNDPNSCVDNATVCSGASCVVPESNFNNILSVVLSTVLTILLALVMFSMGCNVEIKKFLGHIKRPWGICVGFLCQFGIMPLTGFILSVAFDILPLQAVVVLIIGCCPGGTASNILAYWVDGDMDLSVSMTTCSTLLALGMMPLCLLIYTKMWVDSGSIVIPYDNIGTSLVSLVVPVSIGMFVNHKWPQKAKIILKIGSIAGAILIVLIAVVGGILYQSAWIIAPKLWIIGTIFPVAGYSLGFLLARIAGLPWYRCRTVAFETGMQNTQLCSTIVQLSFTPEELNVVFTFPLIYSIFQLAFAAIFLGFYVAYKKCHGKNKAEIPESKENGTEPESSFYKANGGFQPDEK
The test can be described thus: In vitro assay of IBAT-mediated uptake of [14C]-taurocholate (TC) in H14 cells. The test is classed as cell-based. The settings on record: read-out: Human TC IC50. The procedure:
In Vitro Assay of Compounds that Inhibit IBAT-Mediated Uptake of [^14C]-Taurocholate (TC) in H14 Cells
Baby hamster kidney cells (BHK) transfected with the cDNA of human IBAT (H14 cells) are seeded at 60,000 cells/well in 96 well Top-Count tissue culture plates for assays run within in 24 hours of seeding, 30,000 cells/well for assays run within 48 hours, and 10,000 cells/well for assays run within 72 hours.
On the day of assay, the cell monolayer is gently washed once with 100 μl assay buffer (Dulbecco's Modified Eagle's medium with 4.5 g/L glucose+0.2% (w/v) fatty acid free bovine serum albumin-(FAF)BSA). To each well 50 μl of a two-fold concentrate of test compound in assay buffer is added along with 50 μl of 6 μM [^14C]-taurocholate in assay buffer (final concentration of 3 μM [^14C]-taurocholate). The cell culture plates are incubated 2 hours at 37° C. prior to gently washing each well twice with 100 μl 4° C. Dulbecco's phosphate-buffered saline (PBS) containing 0.2% (w/v) (FAF)BSA. The wells are then gently washed once with 100 μl 4° C. PBS without (FAF)BSA. To each 200 μl of liquid scintillation counting fluid is added, the plates are heat sealed and shaken for 30 minutes at room temperature prior to measuring the amount of radioactivity in each well on a Packard Top-Count instrument.

Each structure is given as a SMILES string.

`CCCCC1(CC)CS(=O)(=O)c2ccc(SC)cc2C(c2ccc(F)cc2)C1O` (stereo not shown) [Example 281]: the half-inhibitory concentration (IC50) (commonly the midpoint of a concentration-inhibition curve) is 19 nM.
With `CCCCC1(CC)CS(=O)(=O)c2ccc(N3CCOCC3)cc2C(c2ccc(F)cc2)C1O` (stereo not shown) [Example 284] the figure was 80 nM.
Regarding `CCC1(CC)CS(=O)(=O)c2ccc(N)cc2[C@@H](c2ccccc2)[C@H]1O` [Example 287], the IC50 stood at 4000 nM.
Take `CCCC1(CCC)CS(=O)(=O)c2ccc(N)cc2[C@@H](c2ccccc2)[C@H]1O` [Example 289]: the concentration for half-maximal inhibition (IC50) worked out at 230 nM.
Consider `CCCCC1(CCCC)CS(=O)(=O)c2ccc(N)cc2[C@@H](c2ccccc2)[C@H]1O` [Example 290], for which the 50% inhibitory concentration (IC50) was determined as 54 nM.
For the molecule `CCCCC1(CCCC)CS(=O)(=O)c2ccc(N)cc2[C@@H](c2ccc(F)cc2)[C@H]1O` [Example 292], the half-inhibitory concentration (IC50) was 46 nM.
Regarding `CCCCC1(CCCC)CS(=O)(=O)c2ccc(N(C)C)cc2C(c2ccccc2)C1O` (stereo not shown) [Example 294], the IC50 is 13 nM.
With `CCCC[C@]1(CC)CS(=O)(=O)c2ccc(N)cc2[C@@H](c2ccc(OCCOCCOCCI)cc2)[C@H]1O` [Example 295] the figure was 1300 nM.
With `CCCCC1(CC)CS(=O)(=O)c2ccc(N)cc2C(c2ccc(OCCOCCOCC[N+](C)(C)C)cc2)C1O` (stereo not shown) [Example 296] the figure was 1600 nM.
`CCCCC1(CCCC)CS(=O)(=O)c2ccc(N(C)C)cc2C(c2cccc(NC(=O)CCCC[N+](CC)(CC)CC)c2)C1O` (stereo not shown) [Example 1005]: the IC50 was 0.4 nM.
For the molecule `CCCCC1(CCCC)CS(=O)(=O)c2ccc(N(C)C)cc2C(c2ccc(OCCOCC[N+]3(C)CCN(C)CC3)c(F)c2)C1O` (stereo not shown) [Example 1006], the IC50 came out at 1 nM.
Take `CCCCC1(CCCC)CS(=O)(=O)c2ccc(N(C)C)cc2C(c2cccc(OCCOCCOCC[N+](CC)(CC)CC)c2)C1O` (stereo not shown) [Example 1007]: the half-inhibitory concentration (IC50) amounted to 1 nM.
With `CCCCC1(CCCC)CS(=O)(=O)c2ccc(N(C)C)cc2C(c2cccc(OCCOCCOCC[n+]3ccccn3)c2)C1O` (stereo not shown) [Example 1008] the figure was 1 nM; with `CCCCC1(CCCC)CS(=O)(=O)c2ccc(N(C)C)cc2C(c2cccc(OCCOCCOCC[n+]3ccc(N(C)C)cc3)c2)C1O` (stereo not shown) [Example 1009], 1 nM; with `CCCCC1(CCCC)CS(=O)(=O)c2ccc(N(C)C)cc2C(c2ccc(OC)c(F)c2)C1O` (stereo not shown) [Example 1010], 1 nM.
With `CCCCC1(CCCC)CS(=O)(=O)c2ccc(N(C)C)cc2C(c2ccc(OCCCCC[N+](CC)(CC)CC)c(F)c2)C1O` (stereo not shown) [Example 1011] the figure was 1 nM; with `CCCCC1(CCCC)CS(=O)(=O)c2c(OC)cc(N(C)C)cc2C(c2ccc(O)cc2)C1O` (stereo not shown) [Example 1012], 1.5 nM.
`CCCCC1(CCCC)CS(=O)(=O)c2ccc(N(C)C)cc2C(c2ccc(OCCOCCOCC[N+](C)(C)C)c(F)c2)C1O` (stereo not shown) [Example 1013]: the half-inhibitory concentration (IC50) is 2 nM.
In the case of `CCCCC1(CCCC)CS(=O)(=O)c2c(OC)cc(N(C)C)cc2C(c2ccc(OC)cc2)C1O` (stereo not shown) [Example 1014], the half-maximal inhibitory concentration (IC50) came to 2 nM.
With `CCCCC1(CCCC)CS(=O)(=O)c2ccc(N(C)C)cc2C(c2ccc(OCCOCC[N+]3(C)CCCC3)c(F)c2)C1O` (stereo not shown) [Example 1015] the figure was 2 nM; with `CCCCC1(CCCC)CS(=O)(=O)c2ccc(N(C)C)cc2C(c2cccc(OCCOCCOCC[N+](C)(C)CC(=O)O)c2)C1O` (stereo not shown) [Example 1016], 2 nM; with `CCCCC1(CCCC)CS(=O)(=O)c2ccc(N(C)C)cc2C(c2cccc(OCCOCCOCC[n+]3ccc(C)c4ccccc43)c2)C1O` (stereo not shown) [Example 1017], 2 nM.
Regarding `CCCCC1(CCCC)CS(=O)(=O)c2ccc(N(C)C)cc2C(c2cccc(OCCOCCOCC[N+](C)(C)CCN(C)C(=O)c3ccccc3)c2)C1O` (stereo not shown) [Example 1018], the 50% inhibitory concentration (IC50) was found to be 2 nM.
With `CCCCC1(CCCC)CS(=O)(=O)c2ccc(N(C)C)cc2C(c2ccc(OCCCCOCCCC[n+]3ccccc3)c(F)c2)C1O` (stereo not shown) [Example 1019] the figure was 2 nM; with `CCCCC1(CCCC)CS(=O)(=O)c2ccc(N(C)C)cc2C(c2ccc(OCc3cccc(C[N+](CC)(CC)CC)n3)c(F)c2)C1O` (stereo not shown) [Example 1020], 2 nM.
In the case of `CCCCC1(CCCC)CS(=O)(=O)c2ccc(N(C)C)cc2C(c2cccc(OCCOCCOCC[N+]3(CCO)CCOCC3)c2)C1O` (stereo not shown) [Example 1021], the concentration for half-maximal inhibition (IC50) turned out to be 2 nM.
On to `CCCCC1(CCCC)CS(=O)(=O)c2ccc(N(C)C)cc2C(c2cccc(OCCOCCOCC[N+](CC)(CC)CCO)c2)C1O` (stereo not shown) [Example 1022], for which the IC50 was 2 nM.
`C=C(C)C(=O)OCC[N+](CC)(CC)CCOCCOCCOc1cccc(C2c3cc(N(C)C)ccc3S(=O)(=O)CC(CCCC)(CCCC)C2O)c1` (stereo not shown) [Example 1023]: the IC50 is 2 nM.
Turning to `CCCCC1(CCCC)CS(=O)(=O)c2ccc(N(C)C)cc2C(c2cccc(OCCOCCOCC[N+](C)(C)CCN(C)P(C)(=O)c3ccccc3)c2)C1O` (stereo not shown) [Example 1024], the IC50 was determined as 2 nM.
Regarding `CCCCC1(CCCC)CS(=O)(=O)c2ccc(N(C)C)cc2C(c2ccc(OCc3cccc(C[N+](CC)(CC)CC)c3)c(F)c2)C1O` (stereo not shown) [Example 1025], the IC50 worked out at 2 nM.
For `CCCCC1(CCCC)CS(=O)(=O)c2ccc(N(C)C)cc2C(c2cccc(OCCOCCOCC[n+]3ccc(C(C)C)cc3)c2)C1O` (stereo not shown) [Example 1026], the IC50 worked out at 2 nM.
As for `CCCCC1(CCCC)CS(=O)(=O)c2ccc(N(C)C)cc2C(c2cccc(OCCOCCOCC[n+]3ccc(C(C)C)cc3)c2)C1O` (stereo not shown) [Example 1027], the concentration for half-maximal inhibition (IC50) was 2 nM.
As to `CCCCC1(CCCC)CS(=O)(=O)c2ccc(N(C)C)cc2C(c2cccc(OCCOCCOCC[n+]3ccc(C(=O)O)cc3)c2)C1O` (stereo not shown) [Example 1028], the IC50 stood at 2 nM.
Consider `CCCCC1(CCCC)CS(=O)(=O)c2ccc(N(C)C)cc2C(c2cccc(OCCOCCOCC[N+]3(C)CCC(C(=O)c4ccccc4)CC3)c2)C1O` (stereo not shown) [Example 1029], for which the IC50 is 2 nM.
With `CCCCC1(CCCC)CS(=O)(=O)c2ccc(N(C)C)cc2C(c2cccc(OCCOCCOCC[n+]3cc4ccccn4c3)c2)C1O` (stereo not shown) [Example 1030] the figure was 2 nM; with `CCCCC1(CCCC)CS(=O)(=O)c2ccc(N(C)C)cc2C(c2ccc(OCCCCOCCCC[N+](CC)(CC)CC)c(F)c2)C1O` (stereo not shown) [Example 1031], 2 nM.
On to `CCCCC1(CCCC)CS(=O)(=O)c2ccc(N(C)C)cc2C(c2cccc(OCCCCC[N+](CC)(CC)CC)c2)C1O` (stereo not shown) [Example 1032], for which the IC50 was 2 nM.
Take `CCCCC1(CCCC)CS(=O)(=O)c2ccc(N(C)C)cc2C(c2ccc(OCCOCCOCC[N+]3(C)CCN(C)CC3)c(F)c2)C1O` (stereo not shown) [Example 1033]: the IC50 amounted to 2 nM.
For the molecule `CCCCC1(CCCC)CS(=O)(=O)c2ccc(N(C)C)cc2C(c2cccc(OCCOCCOCC[n+]3cccc4ccc5ccccc5c43)c2)C1O` (stereo not shown) [Example 1034], the half-maximal inhibitory concentration (IC50) is 2 nM.
With `CCCCC1(CCCC)CS(=O)(=O)c2ccc(N(C)C)cc2C(c2cccc(OCCOCCOCC[N+](C)(C)CCN(CC)P(C)(=O)c3ccccc3)c2)C1O` (stereo not shown) [Example 1035] the figure was 2 nM; with `CCCCC1(CCCC)CS(=O)(=O)c2ccc(N(C)C)cc2C(c2ccc(O)cc2)C1O` (stereo not shown) [Example 1037], 2.2 nM.
Consider `CCCCC1(CCCC)CS(=O)(=O)c2ccc(N(C)C)cc2C(c2cccc(OCC[N+](C)(C)C)c2)C1O` (stereo not shown) [Example 1038], for which the IC50 was 2.5 nM.
With `CCCCC1(CCCC)CS(=O)(=O)c2ccc(N(C)C)cc2C(c2ccccc2)C1O` (stereo not shown) [Example 1039] the figure was 2.6 nM.
